This is an account of results in patent US11459307B2, “Heterocyclic compounds for the inhibition of PASK” (BioEnergenix LLC, priority 2009, dated 2022).

For assay [1], the system named is high fat diet fed C57Bl6 mice. In words: Mouse High Fat Dietary Model with fast/re-feed. In kind it is in vivo. The settings on record: for reduced body weight vs Vehicle: fast/re-feed. The procedure: A standard model of human hyperlipidemia and insulin resistance is the mouse fed a high fat diet for several weeks (31, 33). Additionally, since hepatic lipid synthesis is known to be regulated by food consumption, the fast/re-feed cycle of Horton et al. (32) was incorporated into the chronic high fat diet model. The compound was evaluated in this model as an agent to restore insulin sensitivity and lower blood lipids. The chronic high fat diet was fed to mice to simulate a standard Western diet which is elevated in calories from high fat and carbohydrate intake. This and similar models of dietary induced obesity, insulin insensitivity and elevated serum lipids and cholesterol are used as mouse and rat models of human pathology including hyperlipidemia, type II diabetes, atherosclerosis, obesity, cardiovascular and liver disease. These models have been used as excellent predictors of efficacy in human clinical trials (PPAR and FXR agonists).
The farnesoid X receptor (FXR) is a ligand-activated transcription factor and a member of the nuclear receptor superfamily. […] While the mechanism of action of FXR agonists is clearly distinct from PASK inhibition, WAY-362450 has been used as a positive control compound producing physiologically beneficial changes in glucose and lipid metabolism resembling inhibition of PASK. Throughout these in vivo assays, WAY-362450 has been used as a control compound, and will be referred to as such.
Male C57Bl6 mice were obtained from Jackson Laboratories and had been fed a high fat diet (60% kcal fat) for eight weeks. The mice were fed an identical high fat diet (Research Diet D12492) upon arrival and during the study. All mice were treated with the subject compound at 30 or 100 mg/kg, control compound (WAY-362450) at 30 mg/kg or vehicle by oral gavage daily for three days. On the final day, 10 animals from each group began an 24 hour fast and then were sacrificed (fasted groups 1a,2a,3a,4a). Alternatively, 10 animals from each group underwent a 24 hour fast followed by a 12 hour re-feed period with the same high fat diet ad libitum and then were sacrificed (re-fed groups 1b,2b,3b,4b).
Body weights were monitored at the start and end of the protocol. After completing the fast or fast/re-feed conditions, the mice were given avertin for anesthesia by intraperitoneal administration. Whole blood was collected by cardiac puncture and the mice were terminated by cervical dislocation. Livers were collected surgically, weighed and immediately frozen in liquid nitrogen. The blood was placed in Li-heparin treated tubes, centrifuged to collect plasma and the plasma frozen.
The plasma was analyzed by standard colorimetric assays for glucose, insulin, triglycerides and cholesterol. Frozen liver samples were pulverized and extracted in ethanolic KOH and analyzed for liver triglycerides and cholesterol.

Assay [2] concerns high fructose diet fed Sprague Dawley rats. As to the kind of experiment: Rat High Fructose Model with Fast/Re-Feed. In kind it is in vivo. On the procedure: Another standard model of human hyperlipidemia and insulin resistance is the rat fed a high fructose diet for several weeks (33). Additionally, since hepatic lipid synthesis is known to be regulated by food consumption, the fast/reefed cycle of Horton et al. (32) was incorporated into the chronic high fructose diet model. A compound disclosed above was evaluated in this model as an agent to restore insulin sensitivity and lower blood lipids.
Eight week old male Sprague Dawley rats were purchased from Harlan, Inc. The rats weighed 200-225 g upon arrival and were divided into groups as detailed in Table 2 and were immediately placed on a high fructose diet (60% kcal fructose; Open Source Diet #D00111301) ad libitum for three weeks. During the last week of feeding the high fructose diet, the rats were dosed with vehicle (5% solutol, 8% β cyclo-dextrin), subject compound at 30 mg/kg or 100 mg/kg or the control compound at 30 mg/kg by oral gavage once daily for 7 days. On the final day, all animals were placed on a […] followed by a 12 hour re-feed period on the high fructose diet ad libitum. Body weights were monitored throughout the protocol. After completing the fast or fast/re-feed conditions, the rats were given avertin for anesthesia by intraperitoneal administration. Whole blood was collected by cardiac puncture and the rats were terminated by cervical dislocation. Livers were collected surgically, weighed and immediately frozen in liquid nitrogen. The blood was placed in Li-heparin treated tubes, centrifuged to collect plasma and the plasma frozen.
The plasma was analyzed by standard colorimetric assays for glucose, insulin, triglycerides and cholesterol.

The mark [3] stands for this setting: 30 mg/kg oral once daily for 7 days.
Where [4] appears, read: 100 mg/kg oral once daily for 7 days.
[5] abbreviates: fast and re-feed, 30 mg/kg for 7 days.
Setting [6] is: fast and re-feed, 100 mg/kg for 7 days.

For the molecule `CC(C)N(C)c1nc2cc(C(=O)O)ccc2nc1-c1ccc(F)cc1` [subject compound], the “reductions in liver weights” value in assay [1] (30 and 100 mg/kg oral daily for three days) was 7-9%. Also, the “decreased plasma glucose vs vehicle” value is given as “up to 21%” in assay [1] (fast and re-feed, 100 mg/kg (highest dose)); 30% in assay [1] (fasted only, 30 mg/kg); 43% in assay [1] (fasted only, 100 mg/kg). In addition, the “reduced body weight vs Vehicle” value came out at 2.7% in assay [1] (30 mg/kg oral gavage daily for three days) and 5.1% in assay [1] (100 mg/kg oral gavage daily for three days). Moreover, the “decreased plasma insulin vs vehicle” value in assay [1] (fasted and re-fed, 30 mg/kg) is reported as 10%; in assay [1] (fasted and re-fed, 100 mg/kg), 28%; in assay [1] (fasted only, 30 and 100 mg/kg), “up to 26%”. Also, the “decreased body weight vs Vehicle Fasted” value turned out to be 1.8% in assay [1] (fasted only, 30 mg/kg oral daily for three days) and 5.1% in assay [1] (fasted only, 100 mg/kg oral daily for three days). The results for the “body weight relative to the Vehicle group (FIG. 1)” value in assay [2] (setting [3]) and in assay [2] (setting [4]) were “modest increase in body weight” and “modest decrease in body weight”, respectively. Moreover, in assay [2] (setting [4]), the “maximal reduction in liver weight” value was “about 4%”. The “decrease in plasma glucose vs vehicle” value amounted to 21.5% in assay [2] (setting [5]) and 26.3% in assay [2] (setting [6]). The “insulin levels reduced vs vehicle” value in assay [2] (setting [5]) is 15.4%; in assay [2] (setting [6]) it was 31.4%. In addition, the “plasma cholesterol decreased vs vehicle” value in assay [2] (setting [5]) is listed as 5.7%; in assay [2] (setting [6]), 10%.

Regarding `CC(C)OC(=O)C1=CN(C(=O)c2ccc(F)c(F)c2)CC(C)(C)c2c1[nH]c1ccccc21` [control compound, WAY-362450, reference compound], the “effects on liver weight” value in assay [1] (30 mg/kg oral daily for three days) is on record as “identical to those of the subject compound at the same dose”. Besides, in assay [2] (setting [3]), the “body weight relative to the Vehicle group (FIG. 1)” value is given as “significant increase in body weight”, the “increase in liver weight” value is “about 2 g” and the increased liver weights entry is given as “about 15%”. The “effect on plasma glucose concentrations” value in assay [2] (setting [5]) is given as “did not alter plasma glucose concentrations”.
